Reference: patent US12178840B2, “Method and compositions comprising a CT20 peptide” (UNIVERSITY OF CENTRAL FLORIDA RESEARCH FOUNDATION, INC., priority 2014, dated 2024)
Residues, ends and D or L forms follow the SMILES beside them.

Experiments:
tubulin in MCF-10A cells = assay: Fixed cell immunofluorescence of tubulin; assay type: cell-based, human; details: 24 hours of CT20p treatment
Protocol: Fixed cell immunofluorescence: Cells were seeded on glass coverslips (Fisher) in a 6-well plate at a density of 150,000 cells/well. Cells at 60% confluency were treated with CT20p or left untreated for 24 hours. After CT20p treatment, cells were stained with Mitotracker Red CMXRos (Life Technologies) at a concentration of 200 nM for 30 minutes, before being fixed in ice cold methanol for 10 minutes at −20° C. Cells were then permeabilized in 0.1% Triton X-100 for 10 minutes at 37° C. Samples were blocked in 5% normal goat serum (Santa Cruz) for 30 minutes at 37° C., then incubated with primary antibody α-tubulin (DM1A) (Santa Cruz) for 3 hours at 37° C. Secondary antibody was goat α-mouse IgG-FITC (Santa Cruz) and was applied for 1 hour at room temperature. Coverslips were mounted in UltraCruz mounting media (Santa Cruz), which contains DAPI for nuclear staining. Images were obtained with a Zeiss LSM 710 microscope, using a Zeiss 63× Pan-Apocromat oil immersion lens and Zeiss Zen software. To determine average tubulin levels per cell, the amount of FITC fluorescence intensity per region of interest was divided by the number of cells in the field. At least four images containing between 5 and 12 cells were quantified for each condition. Image analysis was done using Volocity software (Perkin Elmer). […]

[1] = target: T1, Purified recombinant CCTβ (Homo sapiens, UniProt P78371); assay: Pull-down with purified recombinant CCTβ; assay type: binding; details: 0.1 nmol CCTβ, CT20p-Biotin 0.1 to 4 nmol
T1 construct: purchased MyBioSource; host or cells: E. coli
T1 sequence (P78371 1-535): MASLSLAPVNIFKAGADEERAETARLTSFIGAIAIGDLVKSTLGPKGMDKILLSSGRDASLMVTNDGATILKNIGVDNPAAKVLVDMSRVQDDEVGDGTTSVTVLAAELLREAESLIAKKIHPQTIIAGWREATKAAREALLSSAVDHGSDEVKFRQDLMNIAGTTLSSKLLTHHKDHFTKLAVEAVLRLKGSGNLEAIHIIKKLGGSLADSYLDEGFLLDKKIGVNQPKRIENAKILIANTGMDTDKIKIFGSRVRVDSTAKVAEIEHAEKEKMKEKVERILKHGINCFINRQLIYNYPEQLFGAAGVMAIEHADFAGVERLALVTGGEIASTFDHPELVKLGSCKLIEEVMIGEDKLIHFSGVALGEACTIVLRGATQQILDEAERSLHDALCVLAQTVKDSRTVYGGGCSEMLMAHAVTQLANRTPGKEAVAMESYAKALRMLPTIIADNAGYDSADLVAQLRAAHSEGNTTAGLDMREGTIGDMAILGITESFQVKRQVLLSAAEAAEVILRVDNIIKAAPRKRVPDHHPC
Protocol: FIG. 9 is representative data showing that CT20p binds directly to CCTβ. Purified recombinant CCTβ was tested for interaction with CT20p as described in Materials and Methods.
Pull down experiments: Lysate pull-downs were performed with 200 ug cell lysate, obtained by douncing as described above. Lysates were pre-cleared with streptavidin-agarose beads (Pierce), then incubated with […] of CT20-Biotin or biotin for 3 hours at room temperature, followed by overnight incubation at 4° C. with streptavidin-agarose beads. Beads were washed thoroughly with wash buffer (25 mM Tris, 150 mM NaCl, 0.1% NP40, pH7.4), then heated in 4× loading buffer (Invitrogen) for analysis by SDS-PAGE. Mass spectrometric analysis was performed by Moffit Cancer Center (Tampa, FL). Mass spectrometry results presented are of proteins with at least two unique peptides identified, and that were not recovered with biotin-only pull down. In-cell pull downs were performed by first delivering CT20p-Biotin encapsulated in nanoparticles to viable cells at a dose of 75 μg/mL for varying lengths of time. Following treatment, cells were collected and lysed by douncing. 200 ug of cell lysate were then incubated with streptavidin-agarose beads overnight at 4° C., and pull-down was completed as described above. […]

CC[C@H](C)[C@H](NC(=O)[C@@H](NC(=O)[C@H](CC(C)C)NC(=O)[C@H](CO)NC(=O)[C@H](C)NC(=O)[C@@H](NC(=O)[C@H](CC(C)C)NC(=O)[C@@H](NC(=O)CNC(=O)[C@H](C)NC(=O)[C@@H](NC(=O)[C@H](Cc1ccccc1)NC(=O)[C@@H](NC(=O)[C@@H](NC(=O)[C@@H](NC(C)=O)C(C)C)[C@@H](C)O)[C@@H](C)CC)C(C)C)C(C)C)[C@@H](C)O)[C@@H](C)O)C(=O)N[C@@H](Cc1c[nH]c2ccccc12)C(=O)N[C@@H](CCCCN)C(=O)N[C@@H](CCCCN)C(=O)N[C@@H](CCSC)C(=O)NCC(N)=O [CT20] (Ac-VTIFVAGVLTASLTIWKKMG-NH2)
Amount of tubulin per cell (tubulin in MCF-10A cells): no significant loss
Direct interaction with CCTβ [1]: does interact directly with CCTβ
